From patent US12636260B2, “Application of α-asarone in preparation of medicine for preventing or treating hemorrhagic stroke” (CHENGDU XINRUI TAIKANG TECHNOLOGY CO., LTD., priority 2021, dated 2026)

Assays:
Format in all cases: in vivo, rat
ICH rats = assay: Glutamate and GABA content in brain tissue, ICH rats; conditions: 12 to 24 hours after operation, group M
Description: The rats were deeply anesthetized, and decapitated to collect the brain at 12-24 hours after modeling. Then about 60 to 120 mg of brain cortex on the hemorrhagic side were weighed, homogenized with 10 times the volume of ice-cold centrifuge buffer for biochemical detection, homogenized for 10 min in an ice bath, and centrifuged at 4° C. for 30 minutes (14,000 rpm/min). The contents of glutamate and GABA in the supernatant were detected according to the instructions of glutamate content detection kit and rat GABA Elisa kit.

SAH rats [1] = assay: Brain water content and blood-brain barrier permeability (Evans blue), SAH rats; conditions: 24 hours after operation, group M, medium-dose intravenous, vs model group
Description: After completing the evaluation of 24-hour short-term neurological function, 4% Evans blue solution (2.5 mL/kg) was injected into the right caudal vein of the rats. After circulated for 1 hour, the rats were deeply anesthetized and transcardinally perfused with 100 mL of normal saline to collect the rats' brain. The whole brain was divided into four groups: left hemisphere (LH), right hemisphere (RH), cerebellum (Cb) and brainstem (BS). The left and right hemispheres were coronally divided into two parts, one part was immediately weighed (wet weight) with a balance with an accuracy of 0.1 mg, dried in an oven at 105° C. for 24 hours and weighed again (dry weight). The brain water content was calculated as [(wet weight−dry weight)/wet weight]×100%. The other part of the brain tissue was weighed (wet weight) and emerged into 10 times the volume of pure formamide, incubated at 60° C. for 48 hours, centrifuged at 25° C. for 30 min (10,000 rpm/min). The Evans blue in the supernatant was measured at 622 nm by a UV spectrophotometry, and calculated with a standard curve for quantification. The amount of Evans blue was expressed as μg/g of brain tissue (wet weight).

SAH rats [2] = assay: Long-term survival rate of SAH rats; conditions: for Survival rate / 24-hour mortality rate: 2 hours after modeling then once a day for 14 days
Description: The experimental materials, grouping and modeling methods were the same as those in effect embodiment 1. The rats were immediately administrated 2 hours after SAH modeling according to the grouping administration protocol and continued to be administrated once a day for 14 days thereafter, and the survival of the rats was observed and recorded for 14 days. The mortality rate within 24 hours in group S was as high as 53.8%.

SAH rats [3] = assay: Short-term neurological function of SAH rats (Garcia score, beam balance test, bleeding score); conditions: SAH model; for Beam balance score / Garcia score: 24 hours after modeling
Description: Experimental grouping: At 2 h after endovascular perforation or collagenase VII injection, Zea Longa score was used to evaluate the neurological function of rats. Successful model rats were randomly divided into groups for administration.
All groups were administrated through the tail vein injection except for group N administrated intraperitoneally.
The rats were fasted for 12 hours before operation, and were anesthetized with 4% isoflurane, and kept anesthetized with 2% isoflurane. The animals were fixed in the supine position with the body temperature maintained at about 37° C. A traditional skin incision of the neck was performed along the midline. The muscle and fascia were separated along the medial margin of the sternocleidomastoid muscle to expose the right side, then the common carotid artery (CCA), external carotid artery (ECA) and internal carotid artery (ICA) were bluntly separated with disposal lines placed at CCA proximal end, ICA and ECA for use. The CCA proximal end and the ECA were ligated, and the ICA was temporarily clamped with an arterial clip, and then a small hole was poked with a needle at about 4 mm from the bifurcation at the CCA. A nylon suture was introduced into the CCA from the hole and advanced through the ICA after releasing the arterial clip, and the suture was inserted intracranially. […] The suture moved forward for roughly 2 mm to perforate the artery followed by instant withdraw, and then the suture was completely removed and the ICA was ligated. Finally, the incision was cleaned with normal saline and sutured. The sham group conducted the same procedure as the model group except for the perforation. After awakening from anesthesia, the animals were raised normally.
The SAH severity was grading after rat's euthanasia, i.e., completing the evaluation of short-term neurological function. The score was determined by the amount of subarachnoid hemorrhage on the surface of basal cistern and brain tissue which was divided into six parts by the Willis ring composed of basilar artery, anterior cerebral artery, internal carotid artery, posterior cerebral artery and posterior communicating artery. Each part was graded from 0 to 3 points according to the amount of subarachnoid blood clots, i.e., 0 points: no subarachnoid blood; 1 point: a small amount of subarachnoid blood; 2 points: moderate amount of blood clots with recognizable arteries; 3 points: blood clots cover all arteries in the area. All 6 part scores were added up for a total of 18 points. According to the final score, SAH hemorrhage severity could be divided into mild subarachnoid hemorrhage (0 to 7 points), moderate subarachnoid hemorrhage (8 to 12 points), and severe subarachnoid hemorrhage (13 to 18 points). The moderate to severe SAH models were selected for statistical analysis (score≥8 points).
According to Zea Longa's neurological function score, the rats were scored 2 hours after the operation when they were awake from anesthesia. Successful model rats with a score of 1 to 3 points were enrolled in the group: • 0 points: no neurological deficits with normal activity; • 1 point: inability to fully extend the contralateral forepaw; • 2 points: the animal appears to turn in circles when crawling; • 3 points: the animal tends to lean to the hemiplegic side; • 4 points: the animal cannot walk spontaneously or loses consciousness. 1.4 Assessment of Short-Term Neurological Function
The neurological function of rats was comprehensively evaluated with Garcia score and beam balance test 24 hours after modeling. The criteria of Garcia score are shown in Table 1, which evaluates the movement, sensation, climbing and limb symmetry of the rats with the score range of 3 to 18 points. The lower the score, the more severe the neurological injury. The criteria of the beam balance test are shown in Table 2, which evaluated the proprioception and body coordination of rats with the score range of 0 to 6 points. […]

SAH rats [4] = assay: Secondary epilepsy in SAH rats (Racine score, seizures); conditions: within 24 hours after SAH
Description: The experimental materials, grouping, modeling method and administration protocol were the same as those in the effect embodiment 1, and the seizures of rats in each group were observed within 24 hours after SAH.

[5] = group H, α-asarone emulsion injection 30 mg/kg tail vein
[6] = group L, α-asarone emulsion injection 7.5 mg/kg tail vein
[7] = group M, α-asarone emulsion injection 15 mg/kg tail vein
[8] = group O, α-asarone emulsion oral administration 40 mg/kg

With C/C=C/c1cc(OC)c(OC)cc1OC [α-asarone, trans-2,4,5-trimethoxy-1-propenylbenzene] the “GABA content in the hemorrhagic brain tissue” value (ICH rats) was “significantly reduce”, the “glutamate content in the hemorrhagic brain tissue” value (ICH rats) was “significantly reduce” and the Evans blue content (SAH rats [1]) was “significantly reduce”. For the same compound, the brain water content (SAH rats [1]) was “significantly reduce”, the “survival time (vs group S)” value (SAH rats [2]; 14 days, groups M, H, O and N) was “prolonged” and the Survival rate (SAH rats [2]; Day 14, group H, α-asarone emulsion injection 30 mg/kg tail vein) was 55.6%. The Survival rate (SAH rats [2]; Day 14, group L, α-asarone emulsion injection 7.5 mg/kg tail vein) was 37.5%, the Survival rate (SAH rats [2]; Day 14, group M, α-asarone emulsion injection 15 mg/kg tail vein) was 61.5% and the Survival rate (SAH rats [2]; Day 14, group O, α-asarone emulsion oral administration 40 mg/kg) was 62.5%. For the same compound, the 24-hour mortality rate (SAH rats [2]; [5]) was 22.2%, the 24-hour mortality rate (SAH rats [2]; [6]) was 50.0% and the 24-hour mortality rate (SAH rats [2]; [7]) was 23.1%. For the same compound, the 24-hour mortality rate (SAH rats [2]; [8]) was 25.0%, the “mortality rate within 24 hours (vs group S)” value (SAH rats [2]; groups M, H, O and N) was “significantly reduced” and the Beam balance score (SAH rats [3]; [5]) was 3.22. For the same compound, the Garcia score (SAH rats [3]; [5]) was 11.79, the Beam balance score (SAH rats [3]; [6]) was 3.30 and the Garcia score (SAH rats [3]; [6]) was 10.82. For the same compound, the Beam balance score (SAH rats [3]; [7]) was 2.70, the Garcia score (SAH rats [3]; [7]) was 12.29 and the “curative effect compared with nimodipine (group N) and vinpocetine (group V)” value (SAH rats [3]; group M, 15 mg/kg) was “better”. The “incidence of secondary epilepsy” value (SAH rats [4]) was “significantly reduce”, the “Clonic seizures (%)” value (SAH rats [4]; [5]) was 8.0% and the Racine score (SAH rats [4]; [5]) was 0.73 ± 1.44. The “Tonic seizures (%)” value (SAH rats [4]; [5]) was 6.7%, the “Clonic seizures (%)” value (SAH rats [4]; [6]) was 6.7% and the Racine score (SAH rats [4]; [6]) was 0.53 ± 1.46. The “Tonic seizures (%)” value (SAH rats [4]; [6]) was 6.7%, the “Clonic seizures (%)” value (SAH rats [4]; [7]) was 5.6% and the Racine score (SAH rats [4]; [7]) was 0.44 ± 1.34. The “Tonic seizures (%)” value (SAH rats [4]; [7]) was 5.6%, the “Clonic seizures (%)” value (SAH rats [4]; [8]) was 15.4% and the Racine score (SAH rats [4]; [8]) was 0.77 ± 1.59. For the same compound, the “Tonic seizures (%)” value (SAH rats [4]; [8]) was 7.7%.
